Measurements from ChEMBL document CHEMBL3817770, “Design and synthesis of 5-aminolaevulinic acid/3-hydroxypyridinone conjugates for photodynamic therapy: enhancement of protoporphyrin IX production and photo-toxicity in tumor cells” (Medchemcomm, 2016).
Activity calls are given as the source filed them. The calls are words filed in the database; no cut-off is given here.

Tests used:
[1] = tested on: MDA-MB-435; assay: Phototoxicity in human MDA-MB-435 cells assessed as cell survival at 250 uM incubated for 4 hrs followed by irradiation with blue light for 5 mins by MTT assay; format: functional; details: MDA-MB-435, light or radiation study, read-out: Survival
[2] = tested on: MCF7; assay: Phototoxicity in human MCF7 cells assessed as cell survival at 100 uM incubated for 4 hrs followed by irradiation with blue light for 5 mins in presence of CP94 by MTT assay; format: functional; details: MCF7, light or radiation study, read-out: Survival
[3] = tested on: MDA-MB-435; assay: Phototoxicity in human MDA-MB-435 cells assessed as cell survival at 250 uM incubated for 4 hrs followed by irradiation with blue light for 5 mins in presence of CP94 by MTT assay; format: functional; details: MDA-MB-435, light or radiation study, read-out: Survival
[4] = tested on: MDA-MB-435; assay: Increase in protoporphyrin 9 levels in human MDA-MB-435 cells at 50 to 250 uM after 5 hrs in presence of CP94 by fluorescence spectrometer plate reader method; format: functional, cell-based
[5] = tested on: LNCaP; assay: Phototoxicity in human LNCAP cells assessed as cell survival at 100 uM incubated for 4 hrs followed by irradiation with blue light for 5 mins in presence of CP94 by MTT assay; format: functional; details: light or radiation study, read-out: Survival
[6] = tested on: MCF7; assay: Dark toxicity in human MCF7 cells at 200 uM after 4 hrs by MTT assay; format: cell-based; details: mcf7, 4 h
[7] = tested on: HeLa; assay: Phototoxicity in human HeLa cells assessed as cell survival at 250 uM incubated for 4 hrs followed by irradiation with blue light for 5 mins in presence of CP94 by MTT assay; format: functional; details: light or radiation study, read-out: Survival
[8] = Dark toxicity in human BPH1 cells at 200 uM after 4 hrs by MTT assay; format: cell-based; details: bph-1, 4 h
[9] = tested on: HeLa; assay: Increase in protoporphyrin 9 levels in human HeLa cells at 50 to 250 uM after 5 hrs in presence of CP94 by fluorescence spectrometer plate reader method; format: functional, cell-based
[10] = tested on: MDA-MB-435; assay: Phototoxicity in human MDA-MB-435 cells assessed as cell survival incubated for 4 hrs followed by irradiation with blue light for 5 mins in presence of CP94 by MTT assay; format: functional, cell-based
[11] = tested on: A549; assay: Increase in protoporphyrin 9 levels in human A549 cells at 200 uM after 6 hrs in presence of CP94 by fluorescence spectrometer plate reader method; format: functional
[12] = tested on: HeLa; assay: Phototoxicity in human HeLa cells assessed as cell survival incubated for 4 hrs followed by irradiation with blue light for 5 mins in presence of CP94 by MTT assay; format: functional, cell-based
[13] = tested on: A549; assay: Increase in protoporphyrin 9 levels in human A549 cells at 200 uM after 24 hrs in presence of CP94 by fluorescence spectrometer plate reader method; format: functional
[14] = tested on: KB; assay: Phototoxicity in human KB cells assessed as cell survival at 200 uM incubated for 4 hrs followed by irradiation with blue light for 5 mins by MTT assay; format: functional; details: light or radiation study, read-out: Survival
[15] = tested on: LNCaP; assay: Dark toxicity in human LNCAP cells at 200 uM after 4 hrs by MTT assay; format: cell-based
[16] = tested on: A549; assay: Phototoxicity in human A549 cells assessed as cell survival at 200 uM incubated for 4 hrs followed by irradiation with blue light for 5 mins by MTT assay; format: functional; details: A549, light or radiation study, read-out: Survival
[17] = tested on: LNCaP; assay: Phototoxicity in human LNCAP cells assessed as cell survival at 200 uM incubated for 4 hrs followed by irradiation with blue light for 5 mins by MTT assay; format: functional; details: light or radiation study, read-out: Survival
[18] = tested on: LNCaP; assay: Increase in protoporphyrin 9 levels in human LNCAP cells at 200 uM after 3 hrs in presence of CP94 by fluorescence spectrometer plate reader method; format: functional
[19] = Phototoxicity in human BPH1 cells assessed as cell survival at 200 uM incubated for 4 hrs followed by irradiation with blue light for 5 mins by MTT assay; format: cell-based, BPH-1; details: BPH1 cells, read-out: Survival
[20] = tested on: HeLa; assay: Phototoxicity in human HeLa cells assessed as cell survival at 250 uM incubated for 4 hrs followed by irradiation with blue light for 5 mins by MTT assay; format: functional; details: light or radiation study, read-out: Survival
[21] = Phototoxicity in human BPH1 cells assessed as cell survival at 100 uM incubated for 4 hrs followed by irradiation with blue light for 5 mins in presence of CP94 by MTT assay; format: cell-based, BPH-1; details: read-out: Survival
[22] = tested on: LNCaP; assay: Increase in protoporphyrin 9 levels in human LNCAP cells at 200 uM after 24 hrs in presence of CP94 by fluorescence spectrometer plate reader method; format: functional
[23] = tested on: A549; assay: Increase in protoporphyrin 9 levels in human A549 cells at 200 uM after 3 hrs in presence of CP94 by fluorescence spectrometer plate reader method; format: functional
[24] = tested on: A549; assay: Phototoxicity in human A549 cells assessed as cell survival at 100 uM incubated for 4 hrs followed by irradiation with blue light for 5 mins in presence of CP94 by MTT assay; format: functional; details: A549, light or radiation study, read-out: Survival
[25] = tested on: LNCaP; assay: Increase in protoporphyrin 9 levels in human LNCAP cells at 200 uM after 6 hrs in presence of CP94 by fluorescence spectrometer plate reader method; format: functional
[26] = tested on: A549; assay: Dark toxicity in human A549 cells at 200 uM after 4 hrs by MTT assay; format: cell-based; details: a549, 4 h
[27] = Phototoxicity in human BPH1 cells assessed as cell survival at 100 uM incubated for 4 hrs followed by irradiation with blue light for 5 mins by MTT assay; format: cell-based, BPH-1; details: read-out: Survival
[28] = tested on: A549; assay: Increase in protoporphyrin 9 levels in human A549 cells at 100 uM after 24 hrs by fluorescence spectrometer plate reader method relative to ALA; format: functional
[29] = tested on: LNCaP; assay: Increase in protoporphyrin 9 levels in human LNCAP cells at 100 uM after 24 hrs by fluorescence spectrometer plate reader method relative to ALA; format: functional
[30] = tested on: A549; assay: Increase in protoporphyrin 9 levels in human A549 cells at 200 uM after 6 hrs by fluorescence spectrometer plate reader method; format: functional
[31] = tested on: A549; assay: Phototoxicity in human A549 cells assessed as cell survival at 100 uM incubated for 4 hrs followed by irradiation with blue light for 5 mins by MTT assay; format: functional; details: A549, light or radiation study, read-out: Survival
[32] = tested on: LNCaP; assay: Increase in protoporphyrin 9 levels in human LNCAP cells at 200 uM after 6 hrs by fluorescence spectrometer plate reader method; format: functional
[33] = tested on: A549; assay: Increase in protoporphyrin 9 levels in human A549 cells at 200 uM after 3 hrs by fluorescence spectrometer plate reader method relative to ALA and CP94; format: functional
[34] = tested on: HeLa; assay: Increase in protoporphyrin 9 levels in human HeLa cells after 5 hrs by fluorescence spectrometer plate reader method; format: functional, cell-based
[35] = tested on: HeLa; assay: Phototoxicity in human HeLa cells assessed as cell survival incubated for 4 hrs followed by irradiation with blue light for 5 mins by MTT assay; format: functional, cell-based
[36] = tested on: A549; assay: Increase in protoporphyrin 9 levels in human A549 cells at 200 uM after 24 hrs by fluorescence spectrometer plate reader method relative to ALA and CP94; format: functional
[37] = tested on: MCF7; assay: Phototoxicity in human MCF7 cells assessed as cell survival at 100 uM incubated for 4 hrs followed by irradiation with blue light for 5 mins by MTT assay; format: functional; details: MCF7, light or radiation study, read-out: Survival
[38] = tested on: MDA-MB-435; assay: Increase in protoporphyrin 9 levels in human MDA-MB-435 cells after 5 hrs by fluorescence spectrometer plate reader method; format: functional, cell-based
[39] = Increase in protoporphyrin 9 levels in human BPH1 cells at 100 uM after 24 hrs by fluorescence spectrometer plate reader method relative to ALA; format: ADME, cell-based; details: bph-1, 24 h
[40] = tested on: A549; assay: Increase in protoporphyrin 9 levels in human A549 cells at 200 uM after 3 hrs by fluorescence spectrometer plate reader method; format: functional
[41] = tested on: LNCaP; assay: Phototoxicity in human LNCAP cells assessed as cell survival at 100 uM incubated for 4 hrs followed by irradiation with blue light for 5 mins by MTT assay; format: functional; details: light or radiation study, read-out: Survival
[42] = tested on: KB; assay: Increase in protoporphyrin 9 levels in human KB cells at 100 uM after 24 hrs by fluorescence spectrometer plate reader method relative to ALA; format: functional
[43] = tested on: MDA-MB-435; assay: Phototoxicity in human MDA-MB-435 cells assessed as cell survival incubated for 4 hrs followed by irradiation with blue light for 5 mins by MTT assay; format: functional, cell-based
[44] = tested on: A549; assay: Increase in protoporphyrin 9 levels in human A549 cells at 200 uM after 24 hrs by fluorescence spectrometer plate reader method; format: functional
[45] = tested on: LNCaP; assay: Increase in protoporphyrin 9 levels in human LNCAP cells at 200 uM after 24 hrs by fluorescence spectrometer plate reader method; format: functional
[46] = tested on: A549; assay: Increase in protoporphyrin 9 levels in human A549 cells at 200 uM after 6 hrs by fluorescence spectrometer plate reader method relative to ALA and CP94; format: functional
[47] = Increase in protoporphyrin 9 levels in human BPH1 cells at 200 uM after 3 to 24 hrs by fluorescence spectrometer plate reader method; format: ADME, cell-based; details: bph-1, 200 µM
[48] = tested on: KB; assay: Increase in protoporphyrin 9 levels in human KB cells at 200 uM after 3 to 24 hrs by fluorescence spectrometer plate reader method; format: functional, cell-based
[49] = tested on: LNCaP; assay: Increase in protoporphyrin 9 levels in human LNCAP cells at 200 uM after 3 hrs by fluorescence spectrometer plate reader method; format: functional

NCC(=O)CCC(=O)O [AMINOLEVULINIC ACID]
viability at 250 µM [1]: 61.4%
viability at 100 µM [2]: 26.7%
viability at 250 µM [3]: 28.9%
Activity [4]: Active
viability at 100 µM [5]: 33.1%
Activity [6]: Non-toxic
viability at 250 µM [7]: 26.9%
Activity [8]: Non-toxic
Activity [9]: Active
Activity [10]: Dose-dependent effect
Flu intensity [11]: 42.1 a.u.
Activity [12]: Dose-dependent effect
Flu intensity [13]: 77.8 a.u.
viability at 200 µM [14]: 52.6%
Activity [15]: Non-toxic
viability at 200 µM [16]: 54.7%
viability at 200 µM [17]: 61.9%
Flu intensity [18]: 17.3 a.u.
viability at 4 h, 200 µM [19]: 70.8%
viability at 250 µM [20]: 58.6%
viability at 4 h, 100 µM [21]: 81.9%
Flu intensity [22]: 46 a.u.
Flu intensity [23]: 17.7 a.u.
viability at 100 µM [24]: 18.4%
Flu intensity [25]: 31.3 a.u.
Activity [26]: Non-toxic

COC(=O)CCC(=O)CNC(=O)[C@H](Cc1ccccc1)NC(=O)c1c(O)c(=O)ccn1C
viability at 4 h, 100 µM [27]: 75.1%
viability at 250 µM [1]: 11.1%
fold change (FC) [28]: 3.1
fold change (FC) [29]: 4
Flu intensity [30]: 52.9 a.u.
Activity [6]: Non-toxic
viability at 100 µM [31]: 14.7%
Activity [8]: Non-toxic
Flu intensity [32]: 47.1 a.u.
Flu intensity [33]: 1.6 a.u.
Activity [34]: Dose-dependent effect
Activity [35]: Dose-dependent effect
Flu intensity [36]: 1.2 a.u.
viability at 100 µM [37]: 21.1%
Activity [38]: Dose-dependent effect
viability at 200 µM [14]: 7.8%
fold change (FC) [39]: 1.5
Activity [15]: Non-toxic
viability at 200 µM [16]: 16.3%
viability at 200 µM [17]: 13.5%
Flu intensity [40]: 27.7 a.u.
viability at 100 µM [41]: 26.3%
fold change (FC) [42]: 2.9
Activity [43]: Dose-dependent effect
Flu intensity [44]: 94.6 a.u.
viability at 4 h, 200 µM [19]: 12.4%
viability at 250 µM [20]: 15.3%
Flu intensity [45]: 58.4 a.u.
Flu intensity [46]: 1.3 a.u.
Activity [47]: Non-toxic
Activity [26]: Non-toxic
Activity [48]: Active
Flu intensity [49]: 25.3 a.u.
